Experimental data from patent publication US20240132534A1, “OLIGONUCLEOTIDE PRIMER WITH AN ACYCLIC NUCLEOSIDE STRUCTURE FOR INITIAL CAPPING” (JIANGSU SYNTHGENE BIOTECHNOLOGY CO., LTD., priority 2022, published 2024).

Columns and labels:
RIG-I = target: T1, RIG-I (Homo sapiens, UniProt O95786); assay: Binding ability of mRNA to RIG-I (RNA co-immunoprecipitation, RT-qPCR) in transfected 293T cells; type: cell-based; settings: eGFP mRNA made with the cap analog, 24 h after transfection
T1 construct: endogenous in cells; host or cells: 293T cells
T1 sequence (O95786 1-925): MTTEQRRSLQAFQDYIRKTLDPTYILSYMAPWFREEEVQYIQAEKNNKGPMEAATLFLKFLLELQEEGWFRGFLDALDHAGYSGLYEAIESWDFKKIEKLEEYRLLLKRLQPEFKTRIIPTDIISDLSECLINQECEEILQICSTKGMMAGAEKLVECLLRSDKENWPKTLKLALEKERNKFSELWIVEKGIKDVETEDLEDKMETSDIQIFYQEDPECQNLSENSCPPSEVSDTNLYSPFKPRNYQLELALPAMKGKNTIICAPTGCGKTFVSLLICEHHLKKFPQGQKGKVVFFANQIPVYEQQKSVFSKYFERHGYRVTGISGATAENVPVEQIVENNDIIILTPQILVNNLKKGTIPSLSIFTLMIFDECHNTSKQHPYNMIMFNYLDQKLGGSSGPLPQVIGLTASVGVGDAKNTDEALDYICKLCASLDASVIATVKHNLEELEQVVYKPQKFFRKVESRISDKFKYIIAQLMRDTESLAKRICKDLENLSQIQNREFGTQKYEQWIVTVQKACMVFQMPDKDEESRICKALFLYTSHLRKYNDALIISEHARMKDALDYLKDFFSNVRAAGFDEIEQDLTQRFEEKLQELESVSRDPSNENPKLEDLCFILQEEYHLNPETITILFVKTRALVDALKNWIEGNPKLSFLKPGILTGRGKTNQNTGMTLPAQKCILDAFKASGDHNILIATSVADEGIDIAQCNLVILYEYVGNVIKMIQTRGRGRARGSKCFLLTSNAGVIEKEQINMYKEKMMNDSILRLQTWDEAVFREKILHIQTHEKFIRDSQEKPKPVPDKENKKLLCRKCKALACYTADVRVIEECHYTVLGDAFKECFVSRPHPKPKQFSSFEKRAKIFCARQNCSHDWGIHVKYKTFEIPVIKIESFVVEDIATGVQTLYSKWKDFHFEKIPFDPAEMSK
Description: Test Example 2: Determination of the binding ability of mRNA to RIG I
RIG-I mainly includes two repeated caspase activation and recruitment domains (CARD) at the N-terminus, a helicase structure in the middle and a RNA domain at the C-terminus. The overexpression of the N-terminal CARD domain of RIG-I can promote cells to secrete type I interferon (IFN) even in the absence of viral infection. Therefore, this domain is mainly responsible for transmitting signals downstream. RIG-I can recognize exogenous RNA, mediate the production of cytokines and chemokines, and recruit innate immune cells to trigger immune responses. mRNA with high immunogenicity is easily recognized and combined by RIG. Thus, mRNA with strong binding ability to RIG-1 has high immunogenicity.
In this study, 293T cells were transfected with the eGFP mRNAs prepared by in vitro transcription initiated by the oligonucleotide primers with an acyclic nucleoside structure for initial capping in Examples 1-4, 6, 7, and 11 and the cap analogs in Comparative Examples 1-2, and collected 24 hours later. The intracellular protein RIG I and RNA bound thereto were co-immunoprecipitated by the RNA co-immunoprecipitation method. Finally, reverse transcription and real-time quantitative PCR were performed on these mRNAs.
The specific cell culture conditions were the same as above. Cells were collected 24 hours after transfection. First, a fixing solution was added for incubation. After 10 min, glycine solution of an appropriate concentration was added to terminate the reaction, and cells were collected. The collected cells were lysed using the lysis solution, centrifuged at 12,000 rpm and 4° C. for 10 min. The supernatant was collected and incubated with an appropriate amount of RIG-I or IgG antibody on a shaker at 4° C. overnight. Then 20 μl of Protein A/G magnetic beads were added, incubated at 4° C. for 4 h, and washed on a magnetic stand. After washing was completed, RNA was extracted and used for subsequent RT-qPCR to determine the expression results.

T7 RNA polymerase [1] = target: T2, T7 RNA polymerase (Escherichia phage T7, UniProt P00573); assay: In vitro transcription yield of mRNA by co-transcriptional capping; type: biochemical; settings: for Yield: mRNA from 20 μl IVT, 1 μg template, 37° C. 2 h, Nanodrop One; for Increased yield relative to Comparative Example 1: mRNA IVT yield vs 50 μg of Comparative Example 1
Protocol: (§1) Test Example 1: Determination of in vitro transcription yield and capping efficiency of mRNA
(§2) In vitro synthesis of mRNA was performed using the oligonucleotide primer with an acyclic nucleoside structure for initial capping by the co-transcriptional capping method. First, the plasmid was digested with NotI overnight at […]. DNA template was extracted to synthesize mRNA by in vitro transcription. The oligonucleotide primers with an acyclic nucleoside structure for initial capping in Examples 1-4, 6, 7, and 11 and the capping analogs in Comparative Examples 1-2 were used as cap structures respectively.
Note: During the experiment, the volume of materials required for the system was first calculated, and then the sample was added. The system was firstly added with sterile enzyme-free water, then added with 10X buffer, NTPs, and cap structure subsequently, mixed, centrifuged gently, then added with nuclease inhibitor, inorganic pyrophosphatase, T7 RNA polymerase, and linearized DNA template, mixed thoroughly, centrifuged gently, and incubated at 37° C. After 2 h, the system was added with 1U of DNase I and incubated at 37° C. for another 30 min to remove the DNA template. Then RNA was purified, usually by the magnetic bead purification method. The purified mRNA was dissolved in sterile enzyme-free water, and then quantitatively measured using Nanodrop One.

T7 transcription = T7 transcription (Escherichia phage T7, UniProt P00573); settings: cited from earlier work
T7 RNA polymerase [2] = target: T2, T7 RNA polymerase; assay: IVT capping rate of mRNA by LC-MS; type: biochemical; settings: for Capping rate: LC-MS after RNase H cleavage; for Increased capping rate relative to Comparative Example 1: vs capping rate 93.5% of Comparative Example 1
Protocol: as §1, §2
Liquid chromatography mass spectrometry (LC-MS) was used to determine the IVT capping rate of mRNA with different initial cap analogs. First, it is necessary to design a labeled DNA probe that matches the starting base of the transcript product mRNA, and usually the label is biotin. The streptavidin-labeled magnetic beads were washed, and incubated with the synthesized DNA probe, mRNA and 10×RNase H reaction buffer at room temperature for 30 min. The mixture was mixed slowly while incubating, then added with 20 μl of RNase. H (5U/μl), incubated at 37° C. for 3 h, and mixed thoroughly every half hour. After the incubation was completed, the magnetic beads were washed and added with 100 μL of 75% methanol heated to 80° C. The mixture was heated to 80° C. on a hot plate and kept for 3 min, and then placed on a magnetic stand. The supernatant was collected and dried at room temperature for 45 min to 10 μl using an evaporative centrifuge. The sample was then resuspended in 50 μl of 100 μM EDTA/1% MeOH, which was ready for LC-MS analysis to determine RNA capping during the transcription reaction. Since there was a significant difference in molecular weight between capped and uncapped bases, the capping rate of mRNA transcription initiated by different cap analogs can be determined through the difference in molecular mass.

T2 sequence (P00573 whole entry): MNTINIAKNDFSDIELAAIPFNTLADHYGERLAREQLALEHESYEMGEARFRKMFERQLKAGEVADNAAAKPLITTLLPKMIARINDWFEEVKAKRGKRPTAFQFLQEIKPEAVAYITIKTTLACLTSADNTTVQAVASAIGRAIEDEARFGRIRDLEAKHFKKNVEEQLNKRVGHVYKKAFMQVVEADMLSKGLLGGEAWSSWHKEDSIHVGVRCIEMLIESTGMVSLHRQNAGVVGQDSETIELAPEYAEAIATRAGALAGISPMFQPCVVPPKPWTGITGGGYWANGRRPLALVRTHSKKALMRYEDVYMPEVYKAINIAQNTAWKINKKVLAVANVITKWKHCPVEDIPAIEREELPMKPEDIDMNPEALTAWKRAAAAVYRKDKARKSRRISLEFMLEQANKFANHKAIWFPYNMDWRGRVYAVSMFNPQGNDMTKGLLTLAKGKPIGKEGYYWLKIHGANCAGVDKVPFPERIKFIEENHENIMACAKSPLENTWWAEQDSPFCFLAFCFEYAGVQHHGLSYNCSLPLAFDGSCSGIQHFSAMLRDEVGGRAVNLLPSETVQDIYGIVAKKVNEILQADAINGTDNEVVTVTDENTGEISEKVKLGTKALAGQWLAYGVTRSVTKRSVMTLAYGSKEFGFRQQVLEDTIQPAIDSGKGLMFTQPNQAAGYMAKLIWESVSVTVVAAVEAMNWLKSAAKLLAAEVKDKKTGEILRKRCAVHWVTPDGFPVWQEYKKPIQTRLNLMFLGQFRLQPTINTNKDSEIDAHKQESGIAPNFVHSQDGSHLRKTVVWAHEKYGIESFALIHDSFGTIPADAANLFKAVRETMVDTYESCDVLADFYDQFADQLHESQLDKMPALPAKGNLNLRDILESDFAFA
Chain of T7 transcription (P00573 whole entry): as above

Compound	Relative binding ability to RIG-I (RIG-I)	Yield (T7 RNA polymerase [1]) [µg]	Capped RNA prepared per milliliter of transcription reaction system (T7 transcription; per milliliter of transcription reaction) [mg]	Immunogenicity of transcription products (T7 transcription; vs ARCA)	Capping rate (T7 RNA polymerase [2]) [%]	Increased yield relative to Comparative Example 1 (T7 RNA polymerase [1]) [%]	Increased capping rate relative to Comparative Example 1 (T7 RNA polymerase [2]) [%]
COC1C(OP(=O)(O)OC[C@H]2O[C@@H](n3cnc4c(=O)[nH]c(N)nc43)C(O)C2O)[C@@H](COP(=O)(O)OP(=O)(O)OP(=O)([O-])OC[C@H]2O[C@@H](n3c[n+](C)c4c(=O)[nH]c(N)nc43)C(O)C2O)O[C@H]1n1cnc2c(N)ncnc21 (stereo in doubt) [Comparative Example 1, ^m7GpppA2′OMepG, reference compound]	3.1±0.51	50	4	lower than that of ARCA	93.5	–	–
COC[C@@H](COP(=O)(O)OP(=O)([O-])OP(=O)(O)OC[C@H]1O[C@@H](n2cnc3c(N)ncnc32)C(OC)C1OP(=O)(O)OC[C@H]1O[C@@H](n2cnc3c(=O)[nH]c(N)nc32)C(O)C1O)O[C@H](CO)n1c[n+](C)c2c(=O)[nH]c(N)nc21 (stereo in doubt) [Example 11]	1.5±0.25	71	–	–	96.8	42	3.3
COC1C(OP(=O)(O)OC[C@H](CO)O[C@H](CO)n2cnc3c(=O)[nH]c(N)nc32)[C@@H](COP(=O)(O)OP(=O)(O)OP(=O)([O-])OC[C@H]2O[C@@H](n3c[n+](C)c4c(=O)[nH]c(N)nc43)C(O)C2O)O[C@H]1n1cnc2c(N)ncnc21 (some centres unmarked) [Comparative Example 2, reference compound]	4.0 ± 0.31	41	–	–	90.1	–	–
CO[C@H]1C(OP(=O)(O)OC[C@H]2O[C@@H](n3cnc4c(=O)[nH]c(N)nc43)[C@@H](O)C2O)[C@@H](COP(=O)(O)OP(=O)([O-])OP(=O)(O)OC[C@H](CO)O[C@H](CO)n2c[n+](C)c3c(=O)[nH]c(N)nc32)O[C@H]1n1cnc2c(N)ncnc21 (some centres unmarked) [Example 1]	–	72	–	–	99.3	44	5.8
CO[C@H]1C(OP(=O)(O)OC[C@H](CO)O[C@H](CO)n2cnc3c(=O)[nH]c(N)nc32)[C@@H](COP(=O)(O)OP(=O)([O-])OP(=O)(O)OC[C@H](CO)O[C@H](CO)n2c[n+](C)c3c(=O)[nH]c(N)nc32)O[C@H]1n1cnc2c(N)ncnc21 (some centres unmarked) [Example 2]	2.4 ± 0.34	58	–	–	96.5	–	3
COC[C@@H](O[C@@H](COP(=O)(O)OC[C@H](CO)O[C@H](CO)n1cnc2c(=O)[nH]c(N)nc21)COP(=O)(O)OP(=O)([O-])OP(=O)(O)OC[C@H](CO)O[C@H](CO)n1c[n+](C)c2c(=O)[nH]c(N)nc21)n1cnc2c(N)ncnc21 [Example 4]	2.8 ± 0.62	45	–	–	93.3	–	–
COCCOC1C(OP(=O)(O)OC[C@H]2O[C@@H](n3cnc4c(=O)[nH]c(N)nc43)C(O)C2O)[C@@H](COP(=O)(O)OP(=O)(O)OP(=O)([O-])OC[C@H](CO)O[C@H](CO)n2c[n+](C)c3c(=O)[nH]c(N)nc32)O[C@H]1n1cnc2c(N)ncnc21 (some centres unmarked) [Example 6]	1.4±0.32	44	–	–	95.2	–	–
C[n+]1cn([C@@H](CO)O[C@@H](CO)COP(=O)([O-])OP(=O)(O)OP(=O)(O)OC[C@]23COC(C2OP(=O)(O)OC[C@H]2O[C@@H](n4cnc5c(=O)[nH]c(N)nc54)C(O)C2O)[C@H](n2cnc4c(N)ncnc42)O3)c2nc(N)[nH]c(=O)c21 (some centres unmarked) [Example 7]	2.1 ± 0.21	68	–	–	97.6	36	4.1
